# Measurements as given in US20110152166A1, “METHOD OF MODULATION OF PROTEIN PHOSPHORYLATION-DEPENDENT CONFORMATIONAL TRANSITIONS WITH LOW MOLECULAR WEIGHT COMPOUNDS” (priority 2006, published 2011).
# Where a chain is given by its changes, count along the chain named. Where two headings read alike, the source gives them in different places. Ends that are not written are not given here.
# Key:
# Assay in all cases: PDK1 activity assay with T308tide
# Type in all cases: biochemical
# GST-PDK1 [Leu155Val] = target: T1, GST-PDK1 [Leu155Val] (Homo sapiens, UniProt O15530, L155V)
# T1 construct: different protein constructs, comprising the full length protein or the catalytic domain alone; made in house; host or cells: HEK293 cells (pEBG-2T-PDK1 mutant)
# T1 sequence (O15530 whole entry L155V, the tested form may be a part): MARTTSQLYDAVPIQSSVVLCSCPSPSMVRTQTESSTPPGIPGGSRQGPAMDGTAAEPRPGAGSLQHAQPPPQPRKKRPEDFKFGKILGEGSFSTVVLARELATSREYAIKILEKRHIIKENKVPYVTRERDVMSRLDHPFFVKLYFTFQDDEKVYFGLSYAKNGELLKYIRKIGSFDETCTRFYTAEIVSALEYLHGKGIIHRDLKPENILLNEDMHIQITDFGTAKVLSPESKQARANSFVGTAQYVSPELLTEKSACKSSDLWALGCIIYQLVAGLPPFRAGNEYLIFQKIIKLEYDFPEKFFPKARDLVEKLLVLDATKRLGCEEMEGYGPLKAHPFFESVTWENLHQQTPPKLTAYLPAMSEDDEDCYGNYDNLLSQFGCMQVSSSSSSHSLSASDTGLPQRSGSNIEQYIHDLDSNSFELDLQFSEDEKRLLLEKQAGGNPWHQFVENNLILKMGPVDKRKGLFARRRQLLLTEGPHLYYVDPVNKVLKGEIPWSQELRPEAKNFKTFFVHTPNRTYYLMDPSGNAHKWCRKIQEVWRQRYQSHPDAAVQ
# GST-PDK1 [Arg131Ala] = target: T2, GST-PDK1 [Arg131Ala] (Homo sapiens, UniProt O15530, R131A); details: for AC50 / Max. activity: GST-PDK1 [Arg131Ala]
# T2 construct: different protein constructs, comprising the full length protein or the catalytic domain alone; made in house; host or cells: HEK293 cells (pEBG-2T-PDK1 mutant)
# T2 sequence (O15530 1-556 R131A): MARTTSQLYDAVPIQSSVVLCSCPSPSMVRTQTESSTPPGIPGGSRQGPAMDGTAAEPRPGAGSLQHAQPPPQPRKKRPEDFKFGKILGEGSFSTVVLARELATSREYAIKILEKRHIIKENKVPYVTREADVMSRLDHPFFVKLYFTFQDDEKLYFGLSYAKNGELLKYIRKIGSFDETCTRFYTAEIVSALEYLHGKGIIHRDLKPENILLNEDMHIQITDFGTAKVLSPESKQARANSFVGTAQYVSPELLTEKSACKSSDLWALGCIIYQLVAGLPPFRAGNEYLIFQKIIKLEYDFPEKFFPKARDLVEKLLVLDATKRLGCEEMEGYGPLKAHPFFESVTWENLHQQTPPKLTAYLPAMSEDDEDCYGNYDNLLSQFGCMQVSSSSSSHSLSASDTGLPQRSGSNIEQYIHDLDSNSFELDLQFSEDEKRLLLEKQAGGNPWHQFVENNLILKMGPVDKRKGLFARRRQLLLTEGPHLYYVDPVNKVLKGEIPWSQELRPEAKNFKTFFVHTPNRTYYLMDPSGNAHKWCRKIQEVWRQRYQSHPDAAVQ
# GST-PDK1 [Gln150Met] = target: T3, GST-PDK1 [Gln150Met] (Homo sapiens, UniProt O15530, Q150M)
# T3 construct: different protein constructs, comprising the full length protein or the catalytic domain alone; made in house; host or cells: HEK293 cells (pEBG-2T-PDK1 mutant)
# T3 sequence (O15530 1-556 Q150M): T2 sequence (O15530 1-556 R131A) with A131R, Q150M
# GST-PDK1 [Gln150Glu] = target: T4, GST-PDK1 [Gln150Glu] (Homo sapiens, UniProt O15530, Q150E)
# T4 construct: different protein constructs, comprising the full length protein or the catalytic domain alone; made in house; host or cells: HEK293 cells (pEBG-2T-PDK1 mutant)
# T4 sequence (O15530 1-556 Q150E): T2 sequence (O15530 1-556 R131A) with A131R, Q150E
AC50 (GST-PDK1 [Leu155Val]),activation of PDK1 mutant (in words) (GST-PDK1 [Arg131Ala]; Arg131 mutated to Ala),AC50 (GST-PDK1 [Arg131Ala]),Max. activity (GST-PDK1 [Arg131Ala]),AC50 (GST-PDK1 [Gln150Met]),Max. activity (GST-PDK1 [Gln150Met]),Max. activity (GST-PDK1 [Gln150Glu]),AC50 (GST-PDK1 [Gln150Glu]; read-out: AC50),AC50 (GST-PDK1 [Gln150Glu]),Molecule
No Effect,no longer activated,> 200 µM,1.09 ± 0.06 U/mg,177 ± 64 µM,2.28 ± 0.26 U/mg,2.5 ± 0.7 U/mg,> 200 µM,–,O=C(O)CSC(CC(=O)c1ccc(Cl)cc1)c1ccccc1 (centres unmarked) [Compound 1]
No Effect,–,3.7 ± 2 µM,1.24 ± 0.8 U/mg,0.86 ± 0.25 µM,2.11 ± 0.15 U/mg,–,–,No Effect,"REPRILSEEEQEMFRDFDYIADWC [PIFtide, reference compound]"
